Data from US4929618A, “Piperdine and piperazine derivatives, and antihistaminic pharmaceutical compositions containing the same” (priority 1988, dated 1990).
Like-named read-outs stand apart in the source and are kept apart here.

What was measured:
histamine-induced death = assay: Protective effect on histamine-induced death; type: in vivo, guinea pig (Hartley-strain male); details: oral 1 mg/kg, 2 h before 1.25 mg/kg i.v. histamine hydrochloride, guinea pig; for responders at 1 mg/kg: Cavia porcellus, read-out: Percent inhibition of histamine-induced death at a dose of 1 mg/kg, P.D. (%)
Method: Hartley-strain male guinea pigs weighing 200 to 250 g were employed. After the test animals were starved for 5 hours, the test substance was orally administered at a dose of 1 mg/kg. 2 hours later after administration of the test substance, 1.25 mg/kg of histamine hydrochloride was intravenously administered to induce histamine shock. The potency of the test substance was judged by the percent inhibition of death induced by histamine.

[1] = system: thiopental-induced anesthesia; type: in vivo, mouse (ddY-strain male); details: 60 mg/10 ml/kg, control 1.00
Method: ddY-strain male mice of 5 weeks of age were employed. Thiopental sodium was dissolved in physiological saline, and the test substance was prepared with a suspending agent of 0.5% Tween 80 (trade name, produced by Atlas Powder Co.; polyoxyethylene (20) sorbitan mono-oleate) and 1% gum tragacanth in the ratio of 1:2.5. The test animals were starved for 4 hours, 60 mg/10 ml/kg of the test substance was intraperitoneally administered (or orally administered), and then 20 minutes later (1 hour later in the case of oral administration), 30 mg/[…] of thiopental sodium was intravenously administered. The time immediately from intravenous administration to the righting reflex was measured, and this was defined as the anesthetic time. The formula for determining the anesthesia elongation is shown below. [formula]

[2] = cited from earlier work
[3] = toxicity test in mice by oral administration; details: in vivo, male mouse
Description: Also, the compounds of the present invention are extremely safe, and can be used continuously for a long term as pharmaceuticals, and were confirmed to have good tolerability in the toxicity test in mice by oral administration.

[4] = p.o., 1 hour before i.v. thiopental sodium
[5] = i.p., 20 minutes before i.v. thiopental sodium

## CC(=O)CCCN1CCC(OC(c2ccc(Cl)cc2)c2ccccn2)CC1.O=C(O)/C=C/C(=O)O (centres unmarked) [Compound P, 5-[4-[(4-Chlorophenyl)-2-pyridylmethoxy]-1-piperidyl]-2-pentanone fumaric acid salt]
histamine-induced death
  responders at 1 mg/kg: 100%
[1]; [4]
  The ratio of the elongation on the anesthetic time induced by thiopental: 0.86

## O=c1[nH]c2ccccc2n1CCCN1CCN(C(c2ccccc2)c2ccccc2)CC1 [Oxatomide, reference compound]
histamine-induced death
  responders at 1 mg/kg: 100%
[1]; [4]
  The ratio of the elongation on the anesthetic time induced by thiopental: 4.56

## CC(C)(C)c1ccc(C(O)CCCN2CCC(C(O)(c3ccccc3)c3ccccc3)CC2)cc1 (centres unmarked) [Terfenadine, reference compound]
histamine-induced death
  responders at 1 mg/kg: 50%
[2]; in vivo
  sedative side-effect: little sedative side-effect

## Clc1ccc(C(OC2CCN(CCSc3nc4ccccc4s3)CC2)c2ccccn2)cc1 (centres unmarked) [Compound E, 2-[2-[4-[(4-Chlorophenyl)-2-pyridylmethoxy]-1-piperidyl]-ethylthio]benzothiazole]
histamine-induced death
  responders at 1 mg/kg: 60%
[1]; [5]
  The ratio of the elongation on the anesthetic time induced by thiopental: 1.02

## O=C(CCCN1CCC(OC(c2ccc(Cl)cc2)c2ccccn2)CC1)c1ccccc1 (centres unmarked) [Compound Q, 4-[(4-Chlorophenyl)-2-pyridylmethoxy]-1-(3-benzoylpropyl)piperidine]
histamine-induced death
  responders at 1 mg/kg: 100%
[1]; [4]
  The ratio of the elongation on the anesthetic time induced by thiopental: 1.25

## O=C(O)CCCN1CCC(OC(c2ccc(Cl)cc2)c2ccccn2)CC1 (centres unmarked) [Compound L, 4-[4-[(4-Chlorophenyl)-2-pyridylmethoxy]-1-piperidyl]-butanoic acid]
histamine-induced death
  responders at 1 mg/kg: 100%

## CN1CCCC(n2nc(Cc3ccc(Cl)cc3)c3ccccc3c2=O)CC1 (centres unmarked) [Azelastine hydrochloric acid, reference compound]
histamine-induced death
  responders at 1 mg/kg: 100%

## Clc1ccc(C(OC2CCN(CCSc3nc4ccccc4o3)CC2)c2ccccn2)cc1.O=C(O)/C=C/C(=O)O (centres unmarked) [Compound B, 2-[2-[4-[(4-Chlorophenyl)-2-pyridylmethoxy]-1-piperidyl]-ethylthio]benzoxazole fumarate]
[1]; [4]
  The ratio of the elongation on the anesthetic time induced by thiopental: 1.21
[3]
  LD50: 1700 mg/kg

## Clc1ccc(C(OC2CCN(CCCSc3nc4ccccc4o3)CC2)c2ccccn2)cc1 (centres unmarked) [Compound C]
histamine-induced death
  responders at 1 mg/kg: 100%
[1]; [5]
  The ratio of the elongation on the anesthetic time induced by thiopental: 0.91

## NC(=O)CCCN1CCC(OC(c2ccc(Cl)cc2)c2ccccn2)CC1.O=C(O)/C=C\C(=O)O (centres unmarked) [Compound M, 4-[4-[(4-Chlorophenyl)-2-pyridylmethoxy]-1-piperidyl]-butanamide maleate]
histamine-induced death
  responders at 1 mg/kg: 100%
[1]; [4]
  The ratio of the elongation on the anesthetic time induced by thiopental: 0.75

## CCOc1ccc2nc(SCCCN3CCC(OC(c4ccc(Cl)cc4)c4ccccn4)CC3)sc2c1.O=C(O)/C=C/C(=O)O (centres unmarked) [Compound G, 2-[3-[4-[(4-chlorophenyl)-2-pyridylmethoxy]-1-piperidyl]propylthio]-6-ethoxybenzothiazole fumarate]
histamine-induced death
  responders at 1 mg/kg: 100%
[1]; [4]
  The ratio of the elongation on the anesthetic time induced by thiopental: 0.92

## c1ccc(C(c2ccccc2)N2CCN(CCCSc3nc4ccccc4s3)CC2)cc1 [Compound I, 2-[3-[4-(diphenylmethyl)-1-piperadinyl]propylthio]benzothiazole dimaleate]
histamine-induced death
  responders at 1 mg/kg: 80%
[1]; [5]
  The ratio of the elongation on the anesthetic time induced by thiopental: 1.25

## COc1ccc(CCN2CCC(Nc3nc4ccccc4n3Cc3ccc(F)cc3)CC2)cc1 [Astemizole, reference compound]
histamine-induced death
  responders at 1 mg/kg: 100%
[2]; reported for control drugs
  sedative side-effect: little sedative side-effect

## c1ccc2c(c1)Sc1ccccc1N2CC1CN2CCC1CC2 (centres unmarked) [Meqiutazine, reference compound]
histamine-induced death
  responders at 1 mg/kg: 80%

## CCOC(=O)C=CCN1CCC(OC(c2ccc(Cl)cc2)c2ccccn2)CC1 (centres unmarked) [Compound O, Ethyl 4-[4-[(4-chlorophenyl)-2-pyridylmethoxy]-1-piperidyl]-2-butenoate]
histamine-induced death
  responders at 1 mg/kg: 100%
[1]; [4]
  The ratio of the elongation on the anesthetic time induced by thiopental: 1.14

## Clc1ccc(C(OC2CCN(CCNc3nc4ccccc4s3)CC2)c2ccccn2)cc1 (centres unmarked) [Compound H, 2-[2-[4-[(4-Chlorophenyl)-2-pyridylmethoxy]-1-piperidyl]-ethylamino]benzothiazole]
histamine-induced death
  responders at 1 mg/kg: 100%
[1]; [5]
  The ratio of the elongation on the anesthetic time induced by thiopental: 1.05

## CCOC(=O)CCCN1CCC(OC(c2ccc(Cl)cc2)c2ccccn2)CC1 (centres unmarked) [Compound J, Ethyl 4-[4-[(4-chlorophenyl)-2-pyridylmethoxy]-1-piperidyl]butanoate]
histamine-induced death
  responders at 1 mg/kg: 100%
[1]; [5]
  The ratio of the elongation on the anesthetic time induced by thiopental: 1.04

## Clc1ccc(C(OC2CCN(CCCSc3nc4ccccc4s3)CC2)c2ccccn2)cc1 (centres unmarked) [Compound F, 2-[3-[4-[(4-Chlorophenyl)-2-pyridylmethoxy]-1-piperidyl]-propylthio]benzothiazole]
histamine-induced death
  responders at 1 mg/kg: 80%
[1]; [5]
  The ratio of the elongation on the anesthetic time induced by thiopental: 1.73

## Clc1ccc(C(OC2CCN(CCSc3nc4ccccc4o3)CC2)c2ccccn2)cc1 (centres unmarked) [Compound A, 2-[2-[4-[(4-Chlorophenyl)-2-pyridylmethoxy]-1-piperidyl]-ethylthio]benzoxazole]
histamine-induced death
  responders at 1 mg/kg: 100%
[1]; [5]
  The ratio of the elongation on the anesthetic time induced by thiopental: 0.89

## CCOC(=O)CCCN1CCC(OC(c2ccccc2)c2ccccc2)CC1.O=C(O)/C=C/C(=O)O [Compound N, Ethyl 4-(4-diphenylmethoxy-1-piperidyl)butanoate fumaric acid salt]
histamine-induced death
  responders at 1 mg/kg: 80%
[1]; [4]
  The ratio of the elongation on the anesthetic time induced by thiopental: 0.90

## Clc1ccc(C(OC2CCN(CCNc3nc4ccccc4o3)CC2)c2ccccn2)cc1.O=C(O)/C=C/C(=O)O (centres unmarked) [Compound D, 2-[2-[4-[(4-Chlorophenyl)-2-pyridylmethoxy]-1-piperidyl]-ethylamino]benzoxazole fumaric acid salt]
histamine-induced death
  responders at 1 mg/kg: 100%
[1]; [4]
  The ratio of the elongation on the anesthetic time induced by thiopental: 0.88
[3]
  LD50: 740 mg/kg

## CCOC(=O)CCCN1CCC(OC(c2ccc(Cl)cc2)c2ccccn2)CC1.Cc1ccc(S(=O)(=O)O)cc1 (centres unmarked) [Compound K, Ethyl 4-[4-[(4-chlorophenyl)-2-pyridylmethoxy]-1-piperidyl]butanoate p-toluenesulfonate]
[1]; [4]
  The ratio of the elongation on the anesthetic time induced by thiopental: 1.19
[3]
  LD50: 2200 mg/kg

## Chlorophenylamine maleate [reference compound]
histamine-induced death
  Percent inhibition of histamine-induced death at a dose of 1 mg/kg, P.D. (%): 100%
[1]; [5]
  The ratio of the elongation on the anesthetic time induced by thiopental: 1.81
